US7947733B2, “Phosphorylated pyrone analogs and methods” (Limerick BioPharma, priority 2007, dated 2011)
Several values for one entry are separate records, joined by “and”; a condition that tells them apart may be missing. Equal values may be shown once. Values belong to the compound of their own block, whether it stands above or below them.

How the values were obtained:
rats = experiment: Blood glucose levels in rats co-administered with quercetin-3′-O-phosphate and tacrolimus; type: in vivo, rat; settings: for Blood glucose, Mean change from all vehicle control / Blood glucose, Mean change from Day 1: Prograf 0.5 mg/kg i.p. + Vehicle 1; for Blood glucose, Mean: Prograf 0.5 mg/kg i.p. Day 1 to Day 25 + Vehicle 1, 5 rats; for Blood glucose, individual rats: Prograf 0.5 mg/kg i.p. once daily Day 1 to Day 25 + Vehicle 1 Day 11 to Day 25
Method: One set of 5 rats is treated from day 1 to day 25 with inert vehicle 2 intraperitoneally and treated from day 11 to day 25 with inert vehicle 1 intraperitoneally. […] A third set 5 of rats is treated from day 1 to day 25 with tacrolimus (Prograf®) intraperitoneally at 0.5 mg/kg, and treated from day 11 to day 25 intraperitoneally with quercetin-3′-O-phosphate (Q-Phosphate) at 114 mg/kg. The blood glucose level in the rats is measured on days 1, 10, 15, 20, and 25.

kidney of rats = experiment: Renal pathology in rats co-administered with quercetin-3′-O-phosphate and tacrolimus; type: in vivo, rat; settings: tacrolimus (Prograf) 0.5 mg/kg and inert vehicle, 25 days
Method: Tissue is removed from the kidney of rats treated with tacrolimus (Prograf®) at 0.5 mg/kg and inert vehicle, and from rats treated with tacrolimus (Prograf®) at 0.5 mg/kg and quercetin-3′-O-phosphate (Q-Phosphate) at 11 mg/kg, 28 mg/kg, and at 114 mg/kg for 25 days. […] The tissue from rats treated with Q-Phosphate and tacrolimus show no vacuoles.

[1] = in vivo; cited from earlier work

Blood glucose, Mean change from all vehicle control (rats; Day 1): -0.10 g/L
Blood glucose, Mean (rats; Day 1): 1.27 g/L
Blood glucose, Mean change from Day 1 (rats; Day 10): +0.22 g/l
Blood glucose, Mean change from all vehicle control (rats; Day 10): +0.23 g/l
Blood glucose, Mean (rats; Day 10): 1.49 g/L
Blood glucose, Mean change from Day 1 (rats; Day 15): +1.27 g/l
Blood glucose, Mean change from all vehicle control (rats; Day 15): +1.27 g/l
Blood glucose, Mean (rats; Day 15): 2.54 g/L
Blood glucose, Mean change from Day 1 (rats; Day 20): +1.66 g/l
Blood glucose, Mean change from all vehicle control (rats; Day 20): +1.81 g/l
Blood glucose, Mean (rats; Day 20): 2.93 g/L
Blood glucose, Mean change from Day 1 (rats; Day 25): +1.28 g/l
Blood glucose, Mean change from all vehicle control (rats; Day 25): +1.38 g/l
Blood glucose, Mean (rats; Day 25): 2.55 g/L
vacuolation of kidney tissue (kidney of rats): significant vacuolation
Compound: C=CC[C@@H]1/C=C(\C)C[C@H](C)C[C@H](OC)[C@H]2O[C@@](O)(C(=O)C(=O)N3CCCC[C@H]3C(=O)O[C@H](/C(C)=C/[C@@H]3CC[C@@H](O)[C@H](OC)C3)[C@H](C)[C@@H](O)CC1=O)[C@H](C)C[C@@H]2OC [Prograf ®, tacrolimus, reference compound]
Blood glucose, individual rats (rats; Day 1): 1.16 g/l (2×) and 1.34 g/l and 1.22 g/l and 1.47 g/l
Blood glucose, individual rats (rats; Day 10): 1.30 g/L and 1.39 g/L and 1.40 g/L and 1.09 g/L and 2.25 g/L
Blood glucose, individual rats (rats; Day 15): 3.72 g/L and 1.67 g/L and 2.31 g/L and 1.97 g/L and 3.02 g/L
Blood glucose, individual rats (rats; Day 20): 2.79 g/L and 3.70 g/L and 2.97 g/L and 2.41 g/L and 2.77 g/L
Blood glucose, individual rats (rats; Day 25): 0.97 g/L and 3.16 g/L and 1.69 g/L and 2.98 g/L and 3.96 g/L

Compound: O=c1c(O)c(-c2ccc(O)c(O)c2)oc2cc(O)cc(O)c12 [quercetin aglycone, quercetin]
serum half-life [1]: 19 to 25 h
